For the assay, the system named is gram-positive and gram-negative bacteria. Put plainly: Antimicrobial activity of films, bacteria not specified at the place. It counts as cell-based. The procedure:
Active cultures were prepared by inoculating freshly cultured bacteria or pure colony (24 hours (h)) into lysogeny broth (LB) broth, then incubated in a shaker for 24 h at 30° C. with 200 revolutions per minute (rpm). The optical density (OD) for each culture was set to 0.05, equivalent to 1-2×10^5 colony forming units/millilitre (CFU/mL) by adding LB broth. […] Thereafter, re-suspension was carried out for each sample using 4.6 mL of 0.85 wt. % sodium chloride. Serial dilution was conducted, and 100 microlitre (μL) for each dilution was transferred to LB agar plates. Then, those agar plates were allowed to undergo incubation for 24 h at 30° C. Gentamicin was used as a positive control, and pure PBS film were used as negative control for the microbial culture. […] The whole antimicrobial process was conducted in triplicate to obtain average values. The microbial population was calculated as log CFU per mL sample, and the actual number in each dilution was determined for dishes containing 30-300 colonies using Equation 1 as below: [formula] where C refers to total counts of bacteria in all retained dishes; V refers to volume used for sample dilution; n1 refers to number of retained dishes in first dilution; n2 refers to number of retained dishes in second dilution; D refers to dilution factor of first dilution.

Consider `[O-]n1ccccc1=S.[O-]n1ccccc1=S.[Zn+2]` [SAN, zinc, bis[1-(hydroxy-.kappa.O)-2(1H)-pyridinethionato-.kappa.S2]-,(T-4)-], for which the “antimicrobial activity (general statement)” value is recorded as “exhibited antimicrobial effects”.

The record behind these values is patent US11441029B1, “Packaging films, and methods of preparation thereof” (King Abdulaziz University, priority 2022, dated 2022).
